Laboratory results reported in patent US10760110B2, “Antibiotic testing and screening system” (priority 2017, dated 2020).
≈ marks a conversion by molar mass, not a printed value. Like-named read-outs stand apart in the source and are kept apart here.

How the values were obtained:
Conditions in all cases: Klebsiella pneumoniae
[1] = test system: K. pneumoniae NVT1001 ΔramRΔompK35/36 mutant and its revertants; assay: Etest MIC, ΔramRΔompK35/36 mutant and its revertants (Table 7); type: cell-based
[2] = test system: K. pneumoniae NVT1001 and its ΔompK35/36 and/or ΔramR mutants; assay: Etest MIC, OmpK35/36 loss and AcrAB-TolC overexpression (ΔramR) strains (Table 6); type: cell-based, Klebsiella pneumoniae
How it was run: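 Etest MICs against K. pneumoniae NVT1001 and its ΔompK35/36 and/or ΔramR mutants, rounded up to the next two-fold value. For NVT1001 carrying pACYC177-blaOXA-48, ceftazidime and cefotaxime MICs by CLSI broth microdilution, interpreted with CLSI 2017 breakpoints.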

[3] = test system: K. pneumoniae NVT1001 strains with carbapenemase plasmids; assay: Etest MIC of β-lactams, OmpK35/36 loss, ΔramR and/or carbapenemase (Table 9); type: cell-based, Klebsiella pneumoniae
Protocol: DNA fragments of the resistance genes along with their flanking regions were amplified from clinical plasmids via PCR with specific primer pairs. The resulting PCR fragments were digested and then cloned into the plasmid pACYC177 or pACYC184. The resulting plasmids were then transformed into K. pneumoniae strain NVT1001 via electroporation. The recombinant bacteria were plated onto LB agar plates containing kanamycin (50 mg/L) or chloramphenicol (50 mg/L), and the presence of the cloned gene was confirmed via PCR and DNA sequencing.
The MICs of antibiotics were determined using the Etest (Biodisk AB, Sweden) according to the manufacturer's instructions. The MICs from the Etest, which fall between standard two-fold dilutions, were rounded up to the next highest two-fold value. The MICs of ceftazidime and cefotaxime against K. pneumoniae NVT1001 harbouring the pACYC177 plasmid with blaOXA-48 were further determined using a broth microdilution test according to the recommendations of the CLSI,^25 and the results were interpreted according to the breakpoints established by the CLSI in 2017.^25 Meanwhile, due to the lack of CLSI breakpoints in 2016 and 2017, the results for cephalothin were interpreted according to the breakpoints established by the CLSI in 2015,^26 and the results for moxifloxacin were interpreted according to the breakpoints established by the EUCAST in 2017.^27

Compound: CO/N=C(\C(=O)N[C@@H]1C(=O)N2C(C(=O)[O-])=C(C[N+]3(C)CCCC3)CS[C@H]12)c1csc(N)n1 [Cefepime]
- MIC ([1]; ΔramRΔompK35/36::ompK35/36 revertant): 0.5 µg/mL
- MIC ([1]; ΔramRΔompK35/36::ompK35 revertant): 2 µg/mL
- MIC ([1]; ΔramRΔompK35/36::ompK36 revertant): 0.5 µg/mL
- MIC ([1]; ΔramRΔompK35/36::ramR revertant): 1 µg/mL
- MIC ([1]; ΔramRΔompK35/36::ramR::ompK35/36 revertant): 0.06 µg/mL
- MIC ([1]; ΔramRΔompK35/36::ramR::ompK35 revertant): 0.125 µg/mL
- MIC ([1]; ΔramRΔompK35/36::ramR::ompK36 revertant): 0.125 µg/mL
- MIC ([1]; ΔramRΔompK35/36 mutant): 2 µg/mL
- MIC ([2]; WT, NVT1001, read-out: MIC): 0.06 µg/mL (≈ 0.125 µM)
- MIC ([2]; Δ35, ΔompK35 mutant): 0.125 µg/mL (≈ 0.26 µM)
- MIC ([2]; Δ35/36, ΔompK35/36 mutant): 1 µg/mL (≈ 2.08 µM)
- MIC ([2]; Δ36, ΔompK36 mutant): 0.125 µg/mL (≈ 0.26 µM)
- MIC ([2]; ΔramR mutant): 0.5 µg/mL (≈ 1.04 µM)
- MIC ([2]; ΔramRΔ35, ΔramRΔompK35 mutant): 0.5 µg/mL (≈ 1.04 µM)
- MIC ([2]; ΔramRΔ35/36, ΔramRΔompK35/36 mutant): 2 µg/mL (≈ 4.16 µM)
- MIC ([2]; ΔramRΔ36, ΔramRΔompK36 mutant): 4 µg/mL (≈ 8.32 µM)
- MIC ([3]; IMP-8 on pACYC177, WT (NVT1001), read-out: MIC): 16 µg/mL
- MIC ([3]; IMP-8 on pACYC177, Δ35 (ΔompK35 mutant)): 32 µg/mL
- MIC ([3]; IMP-8 on pACYC177, Δ35/36 (ΔompK35/36 mutant)): > 256 µg/mL
- MIC ([3]; IMP-8 on pACYC177, Δ36 (ΔompK36 mutant)): 64 µg/mL
- MIC ([3]; IMP-8 on pACYC177, ΔramR mutant): 32 µg/mL
- MIC ([3]; IMP-8 on pACYC177, ΔramRΔ35 (ΔramRΔompK35 mutant)): 64 µg/mL
- MIC ([3]; IMP-8 on pACYC177, ΔramRΔ35/36 (ΔramRΔompK35/36 mutant)): 128 µg/mL
- MIC ([3]; IMP-8 on pACYC177, ΔramRΔ36 (ΔramRΔompK36 mutant)): 128 µg/mL
- MIC ([3]; KPC-2 on pACYC177, WT (NVT1001), read-out: MIC): 64 µg/mL
- MIC ([3]; KPC-2 on pACYC177, Δ35 (ΔompK35 mutant)): 64 µg/mL
- MIC ([3]; KPC-2 on pACYC177, Δ35/36 (ΔompK35/36 mutant)): > 256 µg/mL
- MIC ([3]; KPC-2 on pACYC177, Δ36 (ΔompK36 mutant)): 64 µg/mL
- MIC ([3]; KPC-2 on pACYC177, ΔramR mutant): 64 µg/mL
- MIC ([3]; KPC-2 on pACYC177, ΔramRΔ35 (ΔramRΔompK35 mutant)): 64 µg/mL
- MIC ([3]; KPC-2 on pACYC177, ΔramRΔ35/36 (ΔramRΔompK35/36 mutant)): > 256 µg/mL
- MIC ([3]; KPC-2 on pACYC177, ΔramRΔ36 (ΔramRΔompK36 mutant)): > 256 µg/mL
- MIC ([3]; KPC-3 on pACYC177, WT (NVT1001), read-out: MIC): 128 µg/mL
- MIC ([3]; KPC-3 on pACYC177, Δ35 (ΔompK35 mutant)): 128 µg/mL
- MIC ([3]; KPC-3 on pACYC177, Δ35/36 (ΔompK35/36 mutant)): > 256 µg/mL
- MIC ([3]; KPC-3 on pACYC177, Δ36 (ΔompK36 mutant)): 256 µg/mL
- MIC ([3]; KPC-3 on pACYC177, ΔramR mutant): 128 µg/mL
- MIC ([3]; KPC-3 on pACYC177, ΔramRΔ35 (ΔramRΔompK35 mutant)): 128 µg/mL
- MIC ([3]; KPC-3 on pACYC177, ΔramRΔ35/36 (ΔramRΔompK35/36 mutant)): > 256 µg/mL
- MIC ([3]; KPC-3 on pACYC177, ΔramRΔ36 (ΔramRΔompK36 mutant)): > 256 µg/mL
- MIC ([3]; NDM-1 on pACYC177, WT (NVT1001), read-out: MIC): 32 µg/mL
- MIC ([3]; NDM-1 on pACYC177, Δ35 (ΔompK35 mutant)): 128 µg/mL
- MIC ([3]; NDM-1 on pACYC177, Δ35/36 (ΔompK35/36 mutant)): > 256 µg/mL
- MIC ([3]; NDM-1 on pACYC177, Δ36 (ΔompK36 mutant)): > 256 µg/mL
- MIC ([3]; NDM-1 on pACYC177, ΔramR mutant): > 256 µg/mL
- MIC ([3]; NDM-1 on pACYC177, ΔramRΔ35 (ΔramRΔompK35 mutant)): 256 µg/mL
- MIC ([3]; NDM-1 on pACYC177, ΔramRΔ35/36 (ΔramRΔompK35/36 mutant)): > 256 µg/mL
- MIC ([3]; NDM-1 on pACYC177, ΔramRΔ36 (ΔramRΔompK36 mutant)): > 256 µg/mL
- MIC ([3]; OXA-48 on pACYC177, WT (NVT1001), read-out: MIC): 0.5 µg/mL
- MIC ([3]; OXA-48 on pACYC177, Δ35 (ΔompK35 mutant)): 1 µg/mL
- MIC ([3]; OXA-48 on pACYC177, Δ35/36 (ΔompK35/36 mutant)): 8 µg/mL
- MIC ([3]; OXA-48 on pACYC177, Δ36 (ΔompK36 mutant)): 1 µg/mL
- MIC ([3]; OXA-48 on pACYC177, ΔramR mutant): 1 µg/mL
- MIC ([3]; OXA-48 on pACYC177, ΔramRΔ35 (ΔramRΔompK35 mutant)): 1 µg/mL
- MIC ([3]; OXA-48 on pACYC177, ΔramRΔ35/36 (ΔramRΔompK35/36 mutant)): 8 µg/mL
- MIC ([3]; OXA-48 on pACYC177, ΔramRΔ36 (ΔramRΔompK36 mutant)): 8 µg/mL
- MIC ([3]; VIM-1 on pACYC177, WT (NVT1001), read-out: MIC): 128 µg/mL
- MIC ([3]; VIM-1 on pACYC177, Δ35 (ΔompK35 mutant)): 256 µg/mL
- MIC ([3]; VIM-1 on pACYC177, Δ35/36 (ΔompK35/36 mutant)): > 256 µg/mL
- MIC ([3]; VIM-1 on pACYC177, Δ36 (ΔompK36 mutant)): > 256 µg/mL
- MIC ([3]; VIM-1 on pACYC177, ΔramR mutant): > 256 µg/mL
- MIC ([3]; VIM-1 on pACYC177, ΔramRΔ35 (ΔramRΔompK35 mutant)): > 256 µg/mL
- MIC ([3]; VIM-1 on pACYC177, ΔramRΔ35/36 (ΔramRΔompK35/36 mutant)): > 256 µg/mL
- MIC ([3]; VIM-1 on pACYC177, ΔramRΔ36 (ΔramRΔompK36 mutant)): > 256 µg/mL
- MIC ([3]; no supplemental plasmid, WT (NVT1001), read-out: MIC): 0.06 µg/mL
- MIC ([3]; no supplemental plasmid, Δ35 (ΔompK35 mutant)): 0.125 µg/mL
- MIC ([3]; no supplemental plasmid, Δ35/36 (ΔompK35/36 mutant)): 1 µg/mL
- MIC ([3]; no supplemental plasmid, Δ36 (ΔompK36 mutant)): 0.125 µg/mL
- MIC ([3]; no supplemental plasmid, ΔramR mutant): 0.5 µg/mL
- MIC ([3]; no supplemental plasmid, ΔramRΔ35 (ΔramRΔompK35 mutant)): 0.5 µg/mL
- MIC ([3]; no supplemental plasmid, ΔramRΔ35/36 (ΔramRΔompK35/36 mutant)): 2 µg/mL
- MIC ([3]; no supplemental plasmid, ΔramRΔ36 (ΔramRΔompK36 mutant)): 4 µg/mL
